Literature values in US12090156B2, “Application of CB-839 in preparation of drug for inhibiting corneal neovascularization (CNV)” (Institute of Ophthalmology Affiliated to Shandong First …, priority 2022, dated 2024).

Test system: cancer cell lines such as triple-negative breast cancer (TNBC), lung adenocarcinoma, chondrosarcoma, and lymphoma cell lines

In the case of `O=C(Cc1cccc(OC(F)(F)F)c1)Nc1ccc(CCCCc2nnc(NC(=O)Cc3ccccn3)s2)nn1` [CB-839], the antiproliferative activity is given as “significant antiproliferative activity”.
